This is an account of results in US20250059220A1, “SUBSTITUTED BENZOTHIOPHENE DERIVATIVES AND METHODS OF USE THEREOF” (Merck Sharp & Dohme LLC, priority 2021, published 2025).

One assay concerns the target human PTPN1 (1-435) (Homo sapiens (Human), UniProt P18031). The assay is described as follows: Human PTPN1 Biochemical Assay. The note with it: DiFMUP substrate, read-out: PTP1B IC50. An outline of the steps: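 Read-out is DiFMUP hydrolysis fluorescence (360 nm excitation, 460 nm emission) after 1 h at room temperature, following 30 min enzyme–compound preincubation.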

For the next assay, the target named is human PTPN2 (1-387) (Homo sapiens (Human), UniProt P17706). The assay is described as follows: Human PTPN2 Biochemical Assay. The note with it: DiFMUP substrate. An outline of the steps: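 Human PTPN2 (1-387) preincubated 30 min at RT with compound (10-point 3-fold series) in Tris pH 7.4 buffer with 0.5 mM DTT, then DiFMUP substrate added for 1 h at RT. Fluorescence at ex 360/em 460 nm, normalised to no-enzyme and enzyme controls; EC50 from 4-parameter fit.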
Chain of human PTPN2 (1-387) (P17706 other isoform, or with tags, fused parts or gaps): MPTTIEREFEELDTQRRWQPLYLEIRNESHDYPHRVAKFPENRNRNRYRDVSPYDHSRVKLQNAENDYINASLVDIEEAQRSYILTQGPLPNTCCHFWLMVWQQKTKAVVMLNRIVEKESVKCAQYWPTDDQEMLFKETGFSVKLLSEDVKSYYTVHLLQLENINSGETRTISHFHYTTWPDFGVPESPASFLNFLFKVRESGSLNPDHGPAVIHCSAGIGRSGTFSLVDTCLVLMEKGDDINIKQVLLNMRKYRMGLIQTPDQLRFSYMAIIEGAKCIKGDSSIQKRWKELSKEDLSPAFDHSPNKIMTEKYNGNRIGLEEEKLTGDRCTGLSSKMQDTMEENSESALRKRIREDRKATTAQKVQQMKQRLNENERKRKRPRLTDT

Chain of human PTPN1 (1-435) (P18031 whole entry): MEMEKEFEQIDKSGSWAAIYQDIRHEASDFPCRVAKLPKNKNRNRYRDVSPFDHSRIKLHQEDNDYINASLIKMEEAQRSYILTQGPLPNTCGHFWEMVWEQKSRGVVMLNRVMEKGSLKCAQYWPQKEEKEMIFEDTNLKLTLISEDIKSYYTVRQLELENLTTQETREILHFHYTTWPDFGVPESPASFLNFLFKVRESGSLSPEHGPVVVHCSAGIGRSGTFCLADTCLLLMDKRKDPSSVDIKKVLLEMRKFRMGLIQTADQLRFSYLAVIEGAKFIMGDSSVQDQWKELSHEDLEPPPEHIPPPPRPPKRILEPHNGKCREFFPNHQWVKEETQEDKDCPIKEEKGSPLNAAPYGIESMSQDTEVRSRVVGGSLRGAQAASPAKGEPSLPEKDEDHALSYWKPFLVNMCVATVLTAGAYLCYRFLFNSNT

`O=P(O)(O)C(F)(F)c1sc2ccc(-c3nnc[nH]3)cc2c1Br` [Compound 227, ((3-bromo-5-(4H-1,2,4-triazol-3-yl)benzo[b]thiophen-2-yl)difluoromethyl)phosphonic acid]: the IC50 stood at 1000 nM on human PTPN1 (1-435) and 856 nM on human PTPN2 (1-387).
The corresponding values for `O=P(O)(O)C(F)(F)c1sc2ccc(-c3ncc[nH]3)cc2c1Br` [Compound 228, ((3-bromo-5-(1H-imidazol-2-yl)benzo[b]thiophen-2-yl)difluoromethyl)phosphonic acid] are 1850 nM and 1610 nM.
On the same counts, the results for `O=P(O)(O)C(F)(F)c1sc2ccc(-c3cnn[nH]3)cc2c1Br` [Compound 229, ((3-bromo-5-(1H-1,2,3-triazol-5-yl)benzo[b]thiophen-2-yl)difluoromethyl)phosphonic acid] are 531 nM and 86.2 nM.
As to `O=P(O)(O)C(F)(F)c1sc2ccc(-c3nc4ccccc4[nH]3)cc2c1Br` [Compound 230, ((5-(1H-benzo[d]imidazol-2-yl)-3-bromobenzo[b]thiophen-2-yl)difluoromethyl)phosphonic acid], the values for the half-maximal inhibitory concentration (IC50) at human PTPN1 (1-435) and on human PTPN2 (1-387) were 1030 nM and 1730 nM, respectively.
The corresponding values for `O=P(O)(O)C(F)(F)c1sc2c(OCCCC(F)(F)F)c(F)ccc2c1Br` [Compound 231, ((3-bromo-6-fluoro-7-(4,4,4-trifluorobutoxy)benzo[b]thiophen-2-yl)difluoromethyl)phosphonic acid] are 879 nM and 989 nM.
The corresponding values for `O=P(O)(O)C(F)(F)c1sc2c(OCCCC(F)(F)F)cc(-c3nc[nH]n3)cc2c1Br` [Compound 232, ((3-bromo-5-(1H-1,2,4-triazol-3-yl)-7-(4,4,4-trifluorobutoxy)benzo[b]thiophen-2-yl)difluoromethyl)phosphonic acid] are 3.4 nM and 3.06 nM.
Regarding `N#Cc1cc(OCCCC(F)(F)F)c2sc(C(F)(F)P(=O)(O)O)c(Br)c2c1` [Compound 233, ((3-bromo-5-cyano-7-(4,4,4-trifluorobutoxy)benzo[b]thiophen-2-yl)difluoromethyl)phosphonic acid], the IC50 at human PTPN1 (1-435) was found to be 77 nM; against human PTPN2 (1-387), 146 nM.
The corresponding values for `COC(C)(C)C#Cc1cc(C(N)=O)cc2c(Br)c(C(F)(F)P(=O)(O)O)sc12` [Compound 234, ((3-bromo-5-carbamoyl-7-(3-methoxy-3-methylbut-1-yn-1-yl)benzo[b]thiophen-2-yl)difluoromethyl)phosphonic acid] are 490 nM and 774 nM.
The corresponding values for `NC(=O)c1cc(OCCCS(N)(=O)=O)c2sc(C(F)(F)P(=O)(O)O)c(Br)c2c1` [Compound 235, ((3-bromo-5-carbamoyl-7-(3-sulfamoylpropoxy)benzo[b]thiophen-2-yl)difluoromethyl)phosphonic acid] are 20 nM and 16.6 nM.
On the same counts, the results for `O=C(NCc1cccnn1)c1cc(OCCCC2CC2)c2sc(C(F)(F)P(=O)(O)O)c(Br)c2c1` [Compound 236] are 15.2 nM and 13.5 nM.
Turning to `NC(=O)c1cc(OCCOCC(F)(F)F)c2sc(C(F)(F)P(=O)(O)O)c(Br)c2c1` [Compound 237], the 50% inhibitory concentration (IC50) on human PTPN1 (1-435) was 544 nM; against human PTPN2 (1-387), 441 nM.
In the case of `CCOc1cc(C(N)=O)cc2c(Br)c(C(F)(F)P(=O)(O)O)sc12` [Compound 238], the 50% inhibitory concentration (IC50) on human PTPN1 (1-435) was found to be 327 nM; against human PTPN2 (1-387), 227 nM.
On the same counts, the results for `CCCCCOc1cc(C(N)=O)cc2c(Br)c(C(F)(F)P(=O)(O)O)sc12` [Compound 239] are 55.4 nM and 53.9 nM.
The corresponding values for `CCCCOc1cc(C(N)=O)cc2c(Br)c(C(F)(F)P(=O)(O)O)sc12` [Compound 240] are 112 nM and 98.7 nM.
`N#CCCCCOc1cc(C(N)=O)cc2c(Br)c(C(F)(F)P(=O)(O)O)sc12` [Compound 241]: the half-inhibitory concentration (IC50) at human PTPN1 (1-435) is 61.8 nM; against human PTPN2 (1-387), 50.5 nM.
On the same counts, the results for `NC(=O)c1cc(OCc2ccccc2F)c2sc(C(F)(F)P(=O)(O)O)c(Br)c2c1` [Compound 242] are 79.6 nM and 60 nM.
As for `N#CCCCCCCOc1cc(C(N)=O)cc2c(Br)c(C(F)(F)P(=O)(O)O)sc12` [Compound 243], the results for the 50% inhibitory concentration (IC50) on human PTPN1 (1-435) and against human PTPN2 (1-387) were 68.4 nM and 47.9 nM, respectively.
For the molecule `N#CCOc1cc(C(N)=O)cc2c(Br)c(C(F)(F)P(=O)(O)O)sc12` [Compound 244], the 50% inhibitory concentration (IC50) on human PTPN1 (1-435) was 259 nM; against human PTPN2 (1-387), 227 nM.
As to `NC(=O)COc1cc(C(N)=O)cc2c(Br)c(C(F)(F)P(=O)(O)O)sc12` [Compound 245], the IC50 at human PTPN1 (1-435) is 903 nM; at human PTPN2 (1-387), 1460 nM.
As to `NC(=O)c1cc(OCc2cc(F)cc(C(F)(F)F)c2)c2sc(C(F)(F)P(=O)(O)O)c(Br)c2c1` [Compound 247], the IC50 on human PTPN1 (1-435) came out at 94.2 nM; at human PTPN2 (1-387), 54.4 nM.
The corresponding values for `CS(=O)(=O)N1CCC(Oc2cc(C(N)=O)cc3c(Br)c(C(F)(F)P(=O)(O)O)sc23)C1` (stereo not shown) [Compound 248] are 54 nM and 50 nM.
In the case of `NC(=O)c1cc(OCC2CC3(CC3)C2)c2sc(C(F)(F)P(=O)(O)O)c(Br)c2c1` [Compound 249], the figures for the 50% inhibitory concentration (IC50) at human PTPN1 (1-435) and at human PTPN2 (1-387) were 84.5 nM and 60.9 nM, respectively.
The corresponding values for `NC(=O)c1cc(OCC2CC2(F)F)c2sc(C(F)(F)P(=O)(O)O)c(Br)c2c1` (stereo not shown) [Compound 250] are 69.7 nM and 54.1 nM.
The corresponding values for `NC(=O)c1cc(OCCOCC(F)F)c2sc(C(F)(F)P(=O)(O)O)c(Br)c2c1` [Compound 251] are 423 nM and 271 nM.
On to `NC(=O)c1cc(OCCCOC(F)(F)F)c2sc(C(F)(F)P(=O)(O)O)c(Br)c2c1` [Compound 252], for which the results for the concentration for half-maximal inhibition (IC50) on human PTPN1 (1-435) and against human PTPN2 (1-387) were 110 nM and 106 nM, respectively.
On the same counts, the results for `NC(=O)c1cc(OCC2CCC(F)(F)CC2)c2sc(C(F)(F)P(=O)(O)O)c(Br)c2c1` [Compound 253] are 118 nM and 84.6 nM.
The corresponding values for `CC(C)CCOc1cc(C(N)=O)cc2c(Br)c(C(F)(F)P(=O)(O)O)sc12` [Compound 254] are 155 nM and 111 nM.
Regarding `NC(=O)c1cc(OCCC2CC2)c2sc(C(F)(F)P(=O)(O)O)c(Br)c2c1` [Compound 255], the half-maximal inhibitory concentration (IC50) stood at 139 nM at human PTPN1 (1-435) and 96.4 nM on human PTPN2 (1-387).
The corresponding values for `CS(=O)(=O)NCCCOc1cc(C(N)=O)cc2c(Br)c(C(F)(F)P(=O)(O)O)sc12` [Compound 256] are 66 nM and 128 nM.
The corresponding values for `NC(=O)c1cc(OCC(=O)Nc2c(F)cccc2F)c2sc(C(F)(F)P(=O)(O)O)c(Br)c2c1` [Compound 257] are 237 nM and 294 nM.
On the same counts, the results for `O=P(O)(O)C(F)(F)c1sc2c(OCCCC(F)(F)F)cc(-c3cnn[nH]3)cc2c1Br` [Compound 258, ((3-bromo-5-(1H-1,2,3-triazol-5-yl)-7-(4,4,4-trifluorobutoxy)benzo[b]thiophen-2-yl)difluoromethyl)phosphonic acid] are 4.3 nM and 8.39 nM.
Turning to `Nc1cc(OCCCC(F)(F)F)c2sc(C(F)(F)P(=O)(O)O)c(Br)c2c1` [Compound 259, ((5-amino-3-bromo-7-(4,4,4-trifluorobutoxy)benzo[b]thiophen-2-yl)difluoromethyl)phosphonic acid], the IC50 at human PTPN1 (1-435) was determined as 180 nM; against human PTPN2 (1-387), 338 nM.

In general, IC50 refers to the concentration needed to halve the response being measured.
